Like-named read-outs stand apart in the source and are kept apart here.
How the values were obtained:
[1] = system: Adult Sprague-Dawley rats; type: in vivo, rat
[2] = system: rat brain; settings: model of focal ischemia-reperfusion injury in the rat brain; cited from earlier work
[3] = system: humans; settings: cited from earlier work
[4] = system: contusion SCI; test: Tissue sparing following moderate contusion SCI, T10 lesion epicenter; type: in vivo; settings: 5 mg/kg, 15 mins post-injury, 48 hours after SCI, p<0.05
Procedure: Bar graphs representing the extent of tissue sparing measured through cross-sections of the T10 segment injury epicenters 48 hours after a moderate (150 kydn) contusion SCI. […] Bars represent group means, SEM (n=5-6/group). Using an unpaired t-test, * indicates p<0.05 compared to vehicle-treated groups.

O=[N+]([O-])c1ccc(O)c([N+](=O)[O-])c1 [2,4-DNP, 2,4-dinitrophenol]
tissue sparing compared to vehicle-treated animals ([1]; rat, in vivo): significantly increased tissue sparing | reduction of infarct volume [2]: approximately 40% | weight loss as a function of dose ([3]; FIG. 1 left panel, regardless of diet or lifestyle): very linear increase in weigh loss | metabolism as a function of dosage ([3]; FIG. 1 right panel): linear increase in metabolism | cross-sectional area of tissue preservation at lesion epicenter ([4]; vs vehicle (DMSO)): significantly greater cross-sectional area of tissue preservation | percentage of tissue sparing at the lesion epicenters ([4]; vs vehicle controls): significantly higher percentage of tissue sparing

N#CC(C#N)=NNc1ccc(OC(F)(F)F)cc1 [FCCP, carbonyl cyanide 4-trifluoromethoxy phenylhydrazone]
tissue sparing compared to vehicle-treated animals ([1]; TBI rats, dosed 5 min post-injury (5 mg/kg 2,4-DNP, 2.5 mg/kg FCCP, 6.2 mg/kg), 15 days post-injury, p<0.01): significantly increased tissue sparing
